Values of other authors, collected in US12357650B2, “Methods and compositions for cancer therapies that include delivery of halogenated thymidines and thymidine phosphorlylase inhibitors in combination with radiation” (Shuttle Pharmaceuticals, Inc., priority 2017, dated 2025).

Test system: cells
Conditions: as compared to cells without the defective DNA; cited from earlier work

## O=c1[nH]c(=O)n([C@H]2C[C@H](O)[C@@H](CO)O2)cc1Br [BUdR, 5-bromo-2′-deoxyuridine]
  increase in susceptibility of cells to the lethal effects of RT: two-three fold
